# Assay results published in PubChem BioAssay AID330 (DTP/NCI, 2004).
# Where “and” joins values, the source holds several entries; their conditions need not be identical. Identical values can stand only once. Toxic doses and inconclusive results are not listed. Peptide text beside a SMILES is read from it. * marks the point of attachment. Cbz = O=C(OCc1ccccc1)*; Bn = c1ccc(C*)cc1
# Test system: P388 leukemia ip, CD2F1 mice, survival T/C
# Assay: NCI In Vivo Anticancer Drug Screen. Data for tumor model P388 Leukemia (intraperitoneal) in CD2F1 (CDF1) mice
# Conditions: endpoint: median survival time, higher = longer survival
# Procedure, shortened: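 Mice carrying the transplanted tumor received test compound or vehicle. Survival was recorded in each group, and the value is the treated-group measurement divided by that of the vehicle-treated control group.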
# [1] = dose: 50.0 mg/kg/injection, schedule: Q01DX005 (ip), vehicle: Klucel (hydroxypropylcellulose) (HPC)
# [2] = dose: 100.0 mg/kg/injection, schedule: Q01DX005 (ip), vehicle: Klucel (hydroxypropylcellulose) (HPC)
# [3] = dose: 50.0 mg/kg/injection, schedule: Q01DX009 (ip), vehicle: saline
# [4] = dose: 60.0 mg/kg/injection, schedule: Q01DX005 (ip), vehicle: saline with Tween-80
# [5] = dose: 120.0 mg/kg/injection, schedule: Q01DX005 (ip), vehicle: saline with Tween-80
# [6] = dose: 240.0 mg/kg/injection, schedule: Q01DX005 (ip), vehicle: saline with Tween-80
# [7] = dose: 100.0 mg/kg/injection, schedule: Q01DX001 (ip), vehicle: saline with Tween-80
# [8] = dose: 200.0 mg/kg/injection, schedule: Q01DX001 (ip), vehicle: saline with Tween-80
compound,measurement,setting,value
COc1cc(C=Nc2cc(Cl)cc(Cl)c2)ccc1N(CCCl)CCCl,T/C,"dose: 100.0 mg/kg/injection, schedule: Q04DX003 (ip), vehicle: saline with Tween-80",159 % of control and 172 % of control
same,T/C,"dose: 200.0 mg/kg/injection, schedule: Q04DX003 (ip), vehicle: saline with Tween-80",181 % of control and 222 % of control
same,T/C,"dose: 300.0 mg/kg/injection, schedule: Q04DX003 (ip), vehicle: saline with Tween-80",204 % of control
O=C1N2CCNc3ccccc3C(c3ccccc3)N1CC2 (stereo not given),T/C,"dose: 6.25 mg/kg/injection, schedule: Q01DX005 (ip), vehicle: Klucel (hydroxypropylcellulose) (HPC)",88 % of control
same,T/C,"dose: 12.5 mg/kg/injection, schedule: Q01DX005 (ip), vehicle: Klucel (hydroxypropylcellulose) (HPC)",93 % of control
same,T/C,"dose: 25.0 mg/kg/injection, schedule: Q01DX005 (ip), vehicle: Klucel (hydroxypropylcellulose) (HPC)",102 % of control
CCOC(=O)Nc1ccc2c3c(cccc13)-c1ccccc1-2,T/C,[1],90 % of control
same,T/C,[2],97 % of control
same,T/C,"dose: 200.0 mg/kg/injection, schedule: Q01DX005 (ip), vehicle: Klucel (hydroxypropylcellulose) (HPC)",91 % of control
CCCN(CCC)C(=O)c1ccc([N+](=O)[O-])cc1,T/C,"dose: 25.0 mg/kg/injection, schedule: Q01DX009 (ip), vehicle: saline with Tween-80",106 % of control
same,T/C,"dose: 50.0 mg/kg/injection, schedule: Q01DX009 (ip), vehicle: saline with Tween-80",113 % of control
same,T/C,"dose: 100.0 mg/kg/injection, schedule: Q01DX009 (ip), vehicle: saline with Tween-80",100 % of control and 104 % of control
same,T/C,"dose: 200.0 mg/kg/injection, schedule: Q01DX009 (ip), vehicle: saline with Tween-80",106 % of control
O=C(O)CCC/C=N/O,T/C,"dose: 100.0 mg/kg/injection, schedule: Q04DX003 (ip), vehicle: Klucel (hydroxypropylcellulose) (HPC)",98 % of control
same,T/C,"dose: 200.0 mg/kg/injection, schedule: Q04DX003 (ip), vehicle: Klucel (hydroxypropylcellulose) (HPC)",99 % of control
same,T/C,"dose: 400.0 mg/kg/injection, schedule: Q04DX003 (ip), vehicle: Klucel (hydroxypropylcellulose) (HPC)",102 % of control
CS[P+]1(C)C=C(N2CCOCC2)CC1 (stereo not given),T/C,[3],101 % of control
same,T/C,"dose: 100.0 mg/kg/injection, schedule: Q01DX009 (ip), vehicle: saline",96 % of control
same,T/C,"dose: 200.0 mg/kg/injection, schedule: Q01DX009 (ip), vehicle: saline",96 % of control
O=NNc1ccc(-c2ccccc2)cn1,T/C,"dose: 6.25 mg/kg/injection, schedule: Q01DX009 (ip), vehicle: saline",101 % of control
same,T/C,"dose: 25.0 mg/kg/injection, schedule: Q01DX009 (ip), vehicle: saline",181 % of control
same,T/C,[3],108 % of control
CC(C)C(NC(=O)C(CSCc1ccccc1)NC(=O)OCc1ccccc1)C(=O)O (stereo not given) (Cbz-Cys(Bn)-Val-OH; configuration not given here),T/C,[1],97 % of control
same,T/C,[2],88 % of control
Cc1cc(NC(=O)Nc2ccc(F)cc2)no1,T/C,[4],94 % of control
same,T/C,[5],93 % of control
same,T/C,[6],96 % of control
O=C(NCCCCOc1ccc([N+](=O)[O-])cc1Cl)NC1CCCCC1,T/C,"dose: 50.0 mg/kg/injection, schedule: Q01DX001 (ip), vehicle: saline with Tween-80",90 % of control
same,T/C,[7],100 % of control
same,T/C,[8],100 % of control
CSC(=S)n1nc(C)c(N=Nc2ccc(F)cc2)c1C,T/C,[7],92 % of control
same,T/C,[8],92 % of control
same,T/C,"dose: 400.0 mg/kg/injection, schedule: Q01DX001 (ip), vehicle: saline with Tween-80",97 % of control
COC(=O)C(=O)C1CSC2=C(CS(=O)(=O)c3ccccc32)C1=O (stereo not given),T/C,[4],98 % of control
same,T/C,[5],104 % of control
same,T/C,[6],104 % of control
CCN(CC)CCOc1ccc(C=Nc2ccc3c4ccccc4n(CC)c3c2)cc1,T/C,"dose: 100.0 mg/kg/injection, schedule: Q01DX001 (ip), vehicle: Klucel (hydroxypropylcellulose) (HPC)",100 % of control
same,T/C,"dose: 200.0 mg/kg/injection, schedule: Q01DX001 (ip), vehicle: Klucel (hydroxypropylcellulose) (HPC)",100 % of control
same,T/C,"dose: 400.0 mg/kg/injection, schedule: Q01DX001 (ip), vehicle: Klucel (hydroxypropylcellulose) (HPC)",99 % of control
O=C(CCS(=O)O)c1cccs1,T/C,"dose: 100.0 mg/kg/injection, schedule: Q04DX003 (ip), vehicle: saline",99 % of control
same,T/C,"dose: 200.0 mg/kg/injection, schedule: Q04DX003 (ip), vehicle: saline",96 % of control
same,T/C,"dose: 400.0 mg/kg/injection, schedule: Q04DX003 (ip), vehicle: saline",92 % of control
CCN([NH-])C(=S)[S-].CCN([NH-])C(=S)[S-].[Ni],T/C,"dose: 6.25 mg/kg/injection, schedule: Q04DX003 (ip), vehicle: Klucel (hydroxypropylcellulose) (HPC)",99 % of control
same,T/C,"dose: 12.5 mg/kg/injection, schedule: Q04DX003 (ip), vehicle: Klucel (hydroxypropylcellulose) (HPC)",107 % of control
same,T/C,"dose: 25.0 mg/kg/injection, schedule: Q04DX003 (ip), vehicle: Klucel (hydroxypropylcellulose) (HPC)",103 % of control
